The source of these data is patent publication US6849634B2, “Potassium channel inhibitors” (ICAgen, priority 2000, dated 2005).

T1 sequence (P22460 whole entry): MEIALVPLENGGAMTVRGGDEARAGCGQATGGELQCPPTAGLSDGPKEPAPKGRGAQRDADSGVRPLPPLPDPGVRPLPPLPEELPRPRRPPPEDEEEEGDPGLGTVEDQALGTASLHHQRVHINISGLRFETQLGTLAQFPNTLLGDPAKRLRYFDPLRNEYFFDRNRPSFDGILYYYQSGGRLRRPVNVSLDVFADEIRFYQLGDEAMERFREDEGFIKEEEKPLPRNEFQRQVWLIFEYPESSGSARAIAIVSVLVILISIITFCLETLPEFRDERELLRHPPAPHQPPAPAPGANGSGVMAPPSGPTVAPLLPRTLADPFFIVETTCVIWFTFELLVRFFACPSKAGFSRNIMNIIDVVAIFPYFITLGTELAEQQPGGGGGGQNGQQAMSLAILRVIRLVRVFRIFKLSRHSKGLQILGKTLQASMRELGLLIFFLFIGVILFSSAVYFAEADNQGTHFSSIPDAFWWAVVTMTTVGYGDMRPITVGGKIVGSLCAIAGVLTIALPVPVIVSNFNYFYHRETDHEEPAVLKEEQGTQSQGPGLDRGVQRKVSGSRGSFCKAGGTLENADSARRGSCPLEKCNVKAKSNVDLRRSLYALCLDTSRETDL

The assay concerns the target T1, Kv1.5 (Homo sapiens, UniProt P22460).
T1 construct: expressed in transfected cells; host or cells: CHO cells
Description: Kv1.5 inhibition by patch clamp technique. Format: cell-based. To be noted: inhibitors of Kv1.5. An excerpt: The pharmacological profile of the potassium channel inhibitory activity of the compounds of the present invention can be readily assessed by those skilled in the art using routine experimentation, such as the procedures and techniques illustrated in the examples which follow. Assays for assessing the activity of particular compounds may employ cells stably transfected to express a specific potassium channel, as well as native mammalian cells. In particular, stable transfected cells, transfected to express a specific potassium channel, which have been treated with a voltage dependent fluorescent dye, such as bis-(1,3-dibutylbarbituric acid) trimethine oxonol, can be used to gauge the inhibitory activity of potassium channel inhibitor compounds, possibly in comparison to known inhibitors. Alternatively, such cells can be primed with a detectible species, such as 86Rb, and then challenged with a particular compound, under conditions otherwise suitable for activating the potassium channel, to assess the potassium inhibitory activity of the compound. The potassium channel inhibitory activity of a compound also can be determined using isolated mammalian cells and the whole cell configuration of the known patch clamp technique (Hamill et al., Pflugers Archiv 391:85, 1981). These and other known techniques can be readily employed by those skilled in the art to assess the activity level of the potassium channel inhibitor compounds of the present invention.
The cloning, construction and testing of CHO cells that express human voltage-gate potassium channels are described in prior U.S. patent application Ser. No. 08/893,160 (published as WO 98/04521, see also U.S. Pat. No. 6,083,986), as are assays for measuring ^86rubidium efflux from cell monolayers; fluorescence measurement of cell membrane potential; electrophysiological studies and lymphocyte proliferation studies, all of which are incorporated herein by reference.
The efficacy of various compounds of the present invention as inhibitors of Kv1.5 are shown in Table 2 (using the known patch clamp techniques cited above and described in detail in WO 98/04521 (see also U.S. Pat. No. 6,083,986), the disclosure of which is incorporated herein by reference)
(In general: In patch-clamp work, channel activity is measured electrically.)
Regarding `CCc1ccc(S(=O)(=O)NC2CCc3ccc(Nc4ncccc4NC(=O)CCc4ccccc4)cc32)cc1` (stereo not shown) [Compound 1], 0.1 µM produced 46% inhibition.

Consider `C=CCNC(=O)c1cccnc1Nc1ccc2c(c1)C(NS(=O)(=O)c1ccc(CC)cc1)CC2` (stereo not shown) [Compound 26], for which the inhibition (as a rule, the share of the control response that was lost under treatment) at 0.1 µM came to 38%.

Compound `C#CCNC(=O)c1cccnc1Nc1ccc2c(c1)C(NS(=O)(=O)c1ccc(CC)cc1)CC2` (stereo not shown) [Compound 27] had an inhibition at 0.1 µM of 43%.

As for `CCCNC(=O)c1cccnc1Nc1ccc2c(c1)C(NS(=O)(=O)c1ccc(CC)cc1)CC2` (stereo not shown) [Compound 37], at 0.1 µM the inhibition was 35%.

`CCc1ccc(S(=O)(=O)NC2CCc3ccc(Nc4ncccc4C(=O)NCc4ccco4)cc32)cc1` (stereo not shown) [Compound 42] registered an inhibition at 0.1 µM of 45%.

Consider `O=C(NCCc1ccccc1)c1cccnc1Nc1ccc2c(c1)C(NS(=O)(=O)c1ccc(F)cc1)CC2` (stereo not shown) [Compound 58], for which 0.1 µM produced 27% inhibition.

For the compound `O=C(NCc1cccs1)c1cccnc1Nc1ccc2c(c1)C(NS(=O)(=O)c1ccc(F)cc1)CC2` (stereo not shown) [Compound 59], the inhibition at 0.1 µM was found to be 20%.
